The values that follow come from ChEMBL document CHEMBL5465560, “Selectivity Literature for EUbOPEN Chemogenomic Library” (2024).

Assay [1] relates to Mast/stem cell growth factor receptor Kit (Homo sapiens), P10721 [A829P]. The experiment in a line: (§1) Selectivity interaction (LanthaScreen Eu Kinase Binding Assay) EUB0001632a KIT. The note with it: at 10 µM.
Assay [2] has as its system Mast/stem cell growth factor receptor Kit (Homo sapiens), P10721 [D820E]. Described as §1. The note with it: at 10 µM.
In assay [3] the test system is Mast/stem cell growth factor receptor Kit (Homo sapiens), P10721 [V654A]. Described as §1. The settings on record: at 10 µM.
Assay [4] deals with Mast/stem cell growth factor receptor Kit (Homo sapiens), P10721 [D816V]. The description is as §1. The settings on record: at 10 µM.
For assay [5], the system named is Mast/stem cell growth factor receptor Kit (Homo sapiens), P10721 [V559D,T670I]. The assay is described as §1. The settings on record: at 10 µM.
For assay [6], the system named is Mast/stem cell growth factor receptor Kit (Homo sapiens), P10721 [N822K]. Described as §1. The settings on record: at 10 µM.
Assay [7] has as its system Mast/stem cell growth factor receptor Kit (Homo sapiens), P10721 [T670E]. The assay is described as §1. The note with it: at 10 µM.
In assay [8] the test system is Mast/stem cell growth factor receptor Kit (Homo sapiens), P10721 [Y823D]. The assay is described as §1. The settings on record: at 10 µM.
The test system of assay [9] is Mast/stem cell growth factor receptor Kit (Homo sapiens), P10721 [D816H]. The description is as §1. The settings on record: at 10 µM.
Assay [10] has as its target STE20-like serine/threonine-protein kinase (Homo sapiens, UniProt Q9H2G2). The experiment in a line: Selectivity interaction (Ambit KINOMEscan and KiNATiv profiling in Jurkat cells) EUB0000090b SLK. Type of assay: cell-based. The note with it: at 1 µM.
Assay [11] addresses Cyclin-dependent kinase 18 (Homo sapiens) (UniProt Q07002). The experiment in a line: Selectivity interaction (KinomeScan (DiscoverX)) EUB0000607a CDK18. The note with it: at 10 µM.
Assay [12] has as its target Cyclin-dependent kinase 9 (Homo sapiens, UniProt P50750). The experiment in a line: Selectivity interaction (KinomeScan (DiscoverX)) EUB0000666a CDK9. The settings on record: at 10 µM.
Assay [13] addresses Cyclin-dependent kinase 5 (Homo sapiens, UniProt Q00535). The experiment in a line: Selectivity interaction (KinomeScan (DiscoverX)) EUB0000655a CDK5. The note with it: at 10 µM.
The target of assay [14] is Serine/threonine-protein kinase PLK1 (Homo sapiens, UniProt P53350). The experiment in a line: Selectivity interaction (KinomeScan (DiscoverX)) EUB0000655a PLK1. The settings on record: at 10 µM.
Assay [15] deals with T1, MAP kinase-activated protein kinase 5 (Homo sapiens) (UniProt Q8IW41).
T1 sequence (whole entry): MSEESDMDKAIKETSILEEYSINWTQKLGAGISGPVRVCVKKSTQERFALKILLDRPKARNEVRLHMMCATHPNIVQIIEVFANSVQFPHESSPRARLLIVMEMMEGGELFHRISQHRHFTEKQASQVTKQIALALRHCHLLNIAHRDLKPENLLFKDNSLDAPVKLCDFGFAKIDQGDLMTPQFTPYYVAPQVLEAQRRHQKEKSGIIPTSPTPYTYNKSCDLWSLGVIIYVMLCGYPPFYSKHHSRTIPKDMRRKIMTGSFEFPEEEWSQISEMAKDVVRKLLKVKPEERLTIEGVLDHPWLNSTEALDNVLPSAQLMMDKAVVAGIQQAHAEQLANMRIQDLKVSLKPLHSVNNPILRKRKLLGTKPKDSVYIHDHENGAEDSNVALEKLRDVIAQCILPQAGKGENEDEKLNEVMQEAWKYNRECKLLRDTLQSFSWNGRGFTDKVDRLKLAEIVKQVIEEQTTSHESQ
The experiment in a line: Selectivity interaction (KinomeScan (DiscoverX)) EUB0001079a MAPKAPK5. The settings on record: at 1 µM.

Assay [16] addresses Serine/threonine-protein kinase PAK 2 (Homo sapiens) (UniProt Q13177). Nature of the assay: Selectivity interaction (Millipore kinase profiler) EUB0000124b PAK2. The settings on record: at 10 µM.
In assay [17] the target is Glycogen synthase kinase-3 alpha (Homo sapiens, UniProt P49840). The experiment in a line: Selectivity interaction (ProQinase) EUB0000171b GSK3A.
For assay [18], the target named is T2, Protein kinase C iota type (Homo sapiens) (UniProt P41743).
T2 sequence (whole entry): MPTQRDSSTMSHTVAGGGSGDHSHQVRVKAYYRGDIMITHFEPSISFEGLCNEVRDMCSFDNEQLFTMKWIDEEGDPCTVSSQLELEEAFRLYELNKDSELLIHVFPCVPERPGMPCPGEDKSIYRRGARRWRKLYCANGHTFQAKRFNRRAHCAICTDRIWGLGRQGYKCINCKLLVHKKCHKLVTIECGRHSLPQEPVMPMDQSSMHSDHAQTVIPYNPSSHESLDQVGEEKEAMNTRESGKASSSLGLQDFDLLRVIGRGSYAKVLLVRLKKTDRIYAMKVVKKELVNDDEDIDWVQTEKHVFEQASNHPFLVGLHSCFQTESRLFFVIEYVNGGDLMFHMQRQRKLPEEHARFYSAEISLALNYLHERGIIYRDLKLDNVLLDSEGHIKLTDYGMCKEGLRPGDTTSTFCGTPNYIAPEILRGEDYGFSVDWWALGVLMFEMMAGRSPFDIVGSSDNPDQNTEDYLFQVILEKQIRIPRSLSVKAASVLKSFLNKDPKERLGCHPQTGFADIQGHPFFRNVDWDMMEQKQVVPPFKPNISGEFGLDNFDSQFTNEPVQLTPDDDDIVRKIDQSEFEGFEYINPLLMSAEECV
The experiment in a line: Selectivity interaction (KinomeScan (DiscoverX)) EUB0000618a PRKCI. The note with it: at 10 µM.

Assay [19] concerns the target Casein kinase I isoform delta (Homo sapiens, UniProt P48730). The experiment in a line: Selectivity interaction (KinomeScan (DiscoverX)) EUB0000595a CSNK1D. The note with it: at 10 µM.

Glycogen synthase kinase-3 alpha, sequence (P49840 2-483 limits assumed): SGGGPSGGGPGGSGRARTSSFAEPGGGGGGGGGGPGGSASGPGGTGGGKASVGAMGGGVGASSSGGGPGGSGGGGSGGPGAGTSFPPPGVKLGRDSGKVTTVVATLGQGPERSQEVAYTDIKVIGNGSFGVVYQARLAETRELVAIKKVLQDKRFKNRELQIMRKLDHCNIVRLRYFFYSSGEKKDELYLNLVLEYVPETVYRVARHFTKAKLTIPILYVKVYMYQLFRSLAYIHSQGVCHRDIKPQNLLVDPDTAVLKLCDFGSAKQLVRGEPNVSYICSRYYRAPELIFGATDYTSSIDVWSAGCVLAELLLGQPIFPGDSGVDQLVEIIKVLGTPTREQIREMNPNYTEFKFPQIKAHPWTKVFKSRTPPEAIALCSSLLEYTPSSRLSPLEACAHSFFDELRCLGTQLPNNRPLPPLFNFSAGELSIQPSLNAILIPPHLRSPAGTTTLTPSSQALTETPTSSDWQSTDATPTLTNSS
Casein kinase I isoform delta, sequence (P48730 whole entry, looked up, canonical isoform): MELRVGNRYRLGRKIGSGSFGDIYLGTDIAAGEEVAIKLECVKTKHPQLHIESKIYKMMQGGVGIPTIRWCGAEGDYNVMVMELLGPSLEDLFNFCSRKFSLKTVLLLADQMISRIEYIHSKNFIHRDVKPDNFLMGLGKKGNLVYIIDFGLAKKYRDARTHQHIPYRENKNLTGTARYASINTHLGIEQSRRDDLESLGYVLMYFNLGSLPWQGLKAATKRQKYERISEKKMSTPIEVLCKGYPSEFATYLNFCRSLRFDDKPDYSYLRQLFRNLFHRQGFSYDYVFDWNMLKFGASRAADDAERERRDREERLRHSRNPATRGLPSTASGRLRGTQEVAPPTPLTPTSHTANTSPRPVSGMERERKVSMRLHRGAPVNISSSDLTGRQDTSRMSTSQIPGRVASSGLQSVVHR
Serine/threonine-protein kinase PAK 2 (Homo sapiens), sequence (Q13177 whole entry): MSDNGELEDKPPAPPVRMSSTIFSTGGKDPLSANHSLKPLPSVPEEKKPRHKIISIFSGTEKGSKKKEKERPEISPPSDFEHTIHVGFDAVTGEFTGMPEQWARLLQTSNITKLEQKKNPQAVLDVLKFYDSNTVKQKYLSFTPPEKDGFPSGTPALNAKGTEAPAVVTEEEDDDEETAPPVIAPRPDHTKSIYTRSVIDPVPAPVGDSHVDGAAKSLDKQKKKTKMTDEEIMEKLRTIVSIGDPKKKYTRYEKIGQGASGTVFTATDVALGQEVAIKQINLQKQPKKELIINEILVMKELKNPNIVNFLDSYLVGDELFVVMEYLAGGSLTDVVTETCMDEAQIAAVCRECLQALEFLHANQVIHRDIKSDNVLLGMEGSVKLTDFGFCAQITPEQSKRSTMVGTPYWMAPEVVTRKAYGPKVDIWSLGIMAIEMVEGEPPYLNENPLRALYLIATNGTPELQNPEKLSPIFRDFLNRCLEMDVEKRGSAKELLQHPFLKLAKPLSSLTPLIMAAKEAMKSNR
Mast/stem cell growth factor receptor Kit (Homo sapiens), P10721 [A829P], sequence (P10721 whole entry A829P): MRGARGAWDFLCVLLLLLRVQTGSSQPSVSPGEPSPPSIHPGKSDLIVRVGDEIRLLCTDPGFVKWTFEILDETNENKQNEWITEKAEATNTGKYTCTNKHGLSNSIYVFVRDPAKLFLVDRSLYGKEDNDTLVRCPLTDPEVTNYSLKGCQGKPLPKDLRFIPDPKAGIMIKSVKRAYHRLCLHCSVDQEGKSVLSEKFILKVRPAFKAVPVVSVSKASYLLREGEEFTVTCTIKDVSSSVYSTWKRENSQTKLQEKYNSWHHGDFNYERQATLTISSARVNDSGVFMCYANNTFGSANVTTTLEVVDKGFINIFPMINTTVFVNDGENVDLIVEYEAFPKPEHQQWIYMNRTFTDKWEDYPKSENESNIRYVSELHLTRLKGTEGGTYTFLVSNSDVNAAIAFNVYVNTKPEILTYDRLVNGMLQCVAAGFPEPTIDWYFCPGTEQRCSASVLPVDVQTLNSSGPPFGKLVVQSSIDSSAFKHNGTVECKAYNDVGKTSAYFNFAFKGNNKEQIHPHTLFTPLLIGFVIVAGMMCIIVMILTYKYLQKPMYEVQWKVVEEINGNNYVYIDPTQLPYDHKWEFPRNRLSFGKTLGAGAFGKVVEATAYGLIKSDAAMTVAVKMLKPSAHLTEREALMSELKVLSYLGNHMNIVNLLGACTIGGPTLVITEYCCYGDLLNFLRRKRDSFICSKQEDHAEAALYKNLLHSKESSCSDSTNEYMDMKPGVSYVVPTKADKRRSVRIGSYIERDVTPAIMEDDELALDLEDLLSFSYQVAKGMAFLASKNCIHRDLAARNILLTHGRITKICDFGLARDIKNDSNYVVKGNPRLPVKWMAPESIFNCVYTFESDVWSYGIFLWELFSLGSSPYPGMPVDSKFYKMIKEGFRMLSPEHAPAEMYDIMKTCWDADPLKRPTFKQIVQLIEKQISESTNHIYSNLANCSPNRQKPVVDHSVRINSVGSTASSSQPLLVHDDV
Mast/stem cell growth factor receptor Kit (Homo sapiens), P10721 [D820E], sequence (P10721 whole entry D820E): as the sequence (P10721 whole entry A829P) above, with D820E, P829A counted along it
Mast/stem cell growth factor receptor Kit (Homo sapiens), P10721 [Y823D], sequence (P10721 whole entry Y823D): as the sequence (P10721 whole entry A829P) above, with Y823D, P829A counted along it
Cyclin-dependent kinase 9, sequence (P50750 whole entry): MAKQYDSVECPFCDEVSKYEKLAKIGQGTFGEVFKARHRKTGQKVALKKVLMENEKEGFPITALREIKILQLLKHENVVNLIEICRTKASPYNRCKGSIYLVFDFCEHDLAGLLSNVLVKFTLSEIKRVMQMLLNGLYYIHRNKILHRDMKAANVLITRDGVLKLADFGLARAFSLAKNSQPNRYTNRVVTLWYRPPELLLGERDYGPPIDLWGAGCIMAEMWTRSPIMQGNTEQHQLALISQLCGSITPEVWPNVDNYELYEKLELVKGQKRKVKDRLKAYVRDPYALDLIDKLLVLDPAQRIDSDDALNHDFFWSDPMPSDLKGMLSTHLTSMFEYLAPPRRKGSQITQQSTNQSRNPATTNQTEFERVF
Cyclin-dependent kinase 5, sequence (Q00535 whole entry, looked up): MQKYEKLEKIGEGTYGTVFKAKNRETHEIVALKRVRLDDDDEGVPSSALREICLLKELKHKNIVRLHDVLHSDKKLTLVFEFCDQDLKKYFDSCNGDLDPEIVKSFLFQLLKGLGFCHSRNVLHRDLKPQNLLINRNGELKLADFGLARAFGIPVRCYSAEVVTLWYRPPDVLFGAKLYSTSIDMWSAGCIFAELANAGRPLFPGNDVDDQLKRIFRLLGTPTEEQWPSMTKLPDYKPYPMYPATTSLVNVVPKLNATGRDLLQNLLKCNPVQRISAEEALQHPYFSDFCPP

On to `Cn1cc(-n2cnc3c(NCc4nc5cc(Cl)c(Cl)cc5[nH]4)nc(N4CCOCC4)nc32)cn1`, for which the % of inhibition in assay [1] was -25.5%; in assay [2], -6.81%; in assay [3], -40.6%; in [4], -20.9%; in assay [5] it was 1.44%; in assay [6], -18.2%. Moreover, the % of inhibition in [7] was -20.6%; in assay [8], -40.5%; in assay [9], 9.61%.

For `CN(C)C/C=C/C(=O)Nc1ccc(C(=O)N2CCCC(Nc3ncc(Cl)c(-c4c[nH]c5ccccc45)n3)C2)cc1` (stereo not given), in assay [10], the % of control is 70%.

In assay [11], `CNC(=O)Nc1ccc(-c2nc(N3CC4CCC(C3)O4)c3cnn(C4CCC5(CC4)OCCO5)c3n2)cc1` yielded a % of control of 92%.

As for `O=C(NOC[C@H](O)CO)c1ccc(F)c(F)c1Nc1ccc(I)cc1F`, the % of control in assay [12] was 76%.

As to `CN(C)CCOc1ccc(-c2nc(-c3ccncc3)c(-c3ccc4c(c3)CC/C4=N\O)[nH]2)cc1`, the % of control in assay [13] and in assay [14] was 100% in each case.

Consider `Nc1cnc(N2CCc3cc(S(=O)(=O)Nc4c(F)cc(Cl)cc4F)cc(N4CCCC4=O)c32)nc1` [TP-020n], for which the % of control in assay [15] came out at 92%.

The compound `CC(=O)Nc1cccc(-n2c(=O)n(C3CC3)c(=O)c3c(Nc4ccc(I)cc4F)n(C)c(=O)c(C)c32)c1` returned a % of control in assay [16] of 96%.

In the case of `C=CC(=O)Nc1cccc(C(=O)Nc2ccc(Nc3cc(-c4[nH]c(SC)nc4C)ccn3)cc2)c1`, the % of control in assay [17] (at 1 µM) worked out at 90%; in assay [17] (at 5 µM) it was 61%.

In the case of `O[C@H]1CC[C@H](Nc2ncc3nc(Nc4c(F)cc(F)cc4F)n([C@H]4CCOC4)c3n2)CC1`, in [18], the % of control is 100%.

For the compound `COCC(=O)NC/C=C/c1ccc2ncnc(Nc3ccc(Oc4ccc(C)nc4)c(C)c3)c2c1` [CP-724714], the % of control in assay [19] stood at 90%.
